Assay results published in article PMC2014744, “A novel p38α MAPK inhibitor suppresses brain proinflammatory cytokine up-regulation and attenuates synaptic dysfunction and behavioral deficits in an Alzheimer's disease mouse model” (Journal of Neuroinflammation, 2007).
≈ marks a conversion by molar mass, not a printed value. Entries after “also recorded” stand apart in the source; their conditions may differ.

Key:
p38β = target: T1, p38β (Homo sapiens, UniProt Q15759); experiment: Millipore/Upstate kinase profiling: p38β; type: biochemical; conditions: 20 μM compound
T1 construct: purchased Millipore (KinaseProfiler kinase screening service)
Protocol: (§3) Enzyme activity assays were done in a final volume of 50 μl and each point was tested in duplicate. […] When compounds were tested for kinase inhibitory activity, 10X stock solutions of compounds were prepared in DMSO or water, and control samples contained the same final concentration of solvent as the samples containing compound. Data are expressed as percent of the maximal enzyme activity, where enzyme activity in the absence of compound is taken as 100%. IC50 values were calculated by a nonlinear regression data analysis using Microsoft Excel. Selectivity against pathway or structurally related protein kinases was done using purified kinases and standard in vitro assays described previously [69, 70], and included use of the Millipore (Billerica, MA) kinase screening service at 20 μM final concentration of 069A and 90 μM final concentration of ATP.

MKK4 = target: T2, MKK4 (Mus musculus, UniProt P47809); experiment: Millipore/Upstate kinase profiling: MKK4; type: biochemical; conditions: 20 μM compound; 90 μM ATP; activity without inhibitor = 100%
T2 construct: purchased Millipore (KinaseProfiler kinase screening service)
T2 sequence (P47809 1-397): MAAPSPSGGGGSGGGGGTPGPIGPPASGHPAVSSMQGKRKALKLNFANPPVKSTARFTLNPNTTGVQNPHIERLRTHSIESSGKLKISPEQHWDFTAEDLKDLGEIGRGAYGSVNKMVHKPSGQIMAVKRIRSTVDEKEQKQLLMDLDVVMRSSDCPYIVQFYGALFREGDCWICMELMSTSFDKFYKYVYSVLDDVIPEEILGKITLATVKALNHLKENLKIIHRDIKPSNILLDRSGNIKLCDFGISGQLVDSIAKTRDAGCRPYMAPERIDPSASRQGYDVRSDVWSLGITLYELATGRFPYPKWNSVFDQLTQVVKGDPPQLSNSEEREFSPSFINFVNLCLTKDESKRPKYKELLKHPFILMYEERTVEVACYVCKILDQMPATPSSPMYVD

MKK7β = target: T3, MKK7β (Homo sapiens, UniProt O14733); experiment: Millipore/Upstate kinase profiling: MKK7β; type: biochemical; conditions: 20 μM compound; 90 μM ATP; activity without inhibitor = 100%
T3 construct: purchased Millipore (KinaseProfiler kinase screening service)
T3 sequence (O14733 1-419): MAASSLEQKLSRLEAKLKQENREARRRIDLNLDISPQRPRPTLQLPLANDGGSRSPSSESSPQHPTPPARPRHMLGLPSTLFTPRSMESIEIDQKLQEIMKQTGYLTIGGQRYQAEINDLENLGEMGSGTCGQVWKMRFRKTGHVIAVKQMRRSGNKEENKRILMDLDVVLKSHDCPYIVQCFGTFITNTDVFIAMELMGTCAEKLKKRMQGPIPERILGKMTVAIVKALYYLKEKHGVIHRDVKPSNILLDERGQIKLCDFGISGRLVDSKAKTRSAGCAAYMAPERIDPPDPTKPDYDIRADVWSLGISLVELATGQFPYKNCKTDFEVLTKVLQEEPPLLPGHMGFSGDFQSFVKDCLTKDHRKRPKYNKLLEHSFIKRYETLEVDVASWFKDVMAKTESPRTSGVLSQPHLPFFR

[1] = test system: 44 other purified protein kinases; experiment: Millipore kinase screen, summary for the non-p38 kinases; type: biochemical; conditions: 20 μM compound, Table 1
Protocol: as §3

[2] = Aqueous solubility determination (log S); type: physicochemical; conditions: thermodynamic from solid, Milli-Q water, 22°C
Protocol: For aqueous solubility (log S) determination, compound 069A was weighed on a Sartorius AG (Goettingen, Germany) analytical balance, and Milli-Q water was added to create an oversaturated solution (suspension). Sample tubes were stirred for 24 hrs at ambient temperature (t = 22°C). 1 mL of the samples were centrifuged in a microfuge at 16,000 × g for 10 min, and 20 μL was subjected to reverse-phase HPLC analysis to determine the concentration of the compound (caq). The concentration of compound in the aqueous phase (caq) was determined by peak detection at 254 nm at the appropriate retention time relative to a standard curve obtained from serial dilutions of the compound. The log S was calculated as common logarithm (log10) of caq.

[3] = Lipophilicity determination (log P), shake-flask; type: physicochemical; conditions: 1-octanol/water shake-flask, 25°C
Protocol: The partition coefficient was determined by the shake-flask method. The starting solution (0.3 mg/mL) of analyzed compound was prepared in presaturated 1-octanol (Sigma-Aldrich, St. Louis, MO). 1 mL of the octanol phase was agitated on a plate shaker with 10 mL of presaturated Milli-Q water for 2 hrs at 25°C. After partitioning, 1 mL of the aqueous phase was centrifuged in a microfuge for 10 min at 16,000 × g. 20 μL of the sample were analyzed with reversed-phase HPLC as described above to determine the concentration of the aqueous phase (caq). The log P is calculated according to the formula: log P = log10 [(0.3 – caq)/caq].

[4] = Oral bioavailability: compound in plasma after oral gavage; type: in vivo, C57Bl/6 mice; conditions: mice, 2.5 mg/kg oral gavage; earliest time point analyzed
Protocol: (§1) Analysis of oral bioavailability (concentration of compound in the blood as a function of time after oral administration) and brain uptake was done by a modification of that previously described. Briefly, 069A (2.5 mg/kg) was administered to C57Bl/6 mice by oral gavage in a 0.5% (w/v) carboxymethylcellulose suspension. At 5, 15, 30, 60, and 120 min after compound administration, blood was collected in heparinized tubes from anesthetized animals and plasma obtained by centrifugation. After perfusion, brains were harvested, homogenized in 0.1% formic acid and deproteinized with ice-cold acetonitrile. After centrifugation to remove precipitated protein, the brain homogenate supernatants were further diluted with 0.1% formic acid. The plasma samples were acidified by diluting with 0.1% formic acid (1:3, v:v). Solid phase extraction followed by HPLC analysis was used to quantify the amount of compound in the plasma and brain supernatants, with compound MW01-6-189WH used as an internal standard. Briefly, 30 mg cartridges (Oasis® HLB, Waters) were conditioned with 1 mL of acetonitrile and equilibrated with 1 mL of water. Acidified samples were loaded onto the cartridge followed by a 1 mL wash with 5% acetonitrile. Compound was eluted from the cartridge using 100% acetonitrile. The eluate was evaporated to dryness, reconstituted in 60% acetonitrile/0.1% formic acid/water and analyzed by HPLC. […]

[5] = Brain uptake: compound in brain homogenate after oral gavage; type: in vivo, C57Bl/6 mice; conditions: mice, 2.5 mg/kg oral gavage; brain homogenate after perfusion
Protocol: as §1

C57Bl/6 mice = experiment: Liver toxicity screen (histology after two weeks of daily oral dosing); type: in vivo; conditions: 2.5 mg/kg oral gavage once daily for 2 weeks
Protocol: Screening for histological liver injury after chronic, therapeutic dose administration of compound was done as previously described. Briefly, C57Bl/6 mice were administered by oral gavage either […] (2.5 mg/kg) or solvent control (DMSO) in a 0.5% (w/v) carboxymethylcellulose suspension. Compound or vehicle administration was once daily for two weeks. Livers were then removed, fixed in 4% (v/v) paraformaldehyde, and paraffin-embedded for histology. To assess histological toxicity, 4 μm liver sections were stained with haematoxylin and eosin. Two independent observers blinded to the treatment groups performed microscopic assessment of the tissue for injury by using a semi-quantitative histological scoring system that considers architecture features (normal to extensive fibrosis), cellular features (normal to extensive edema and widespread necrosis), and degree of inflammatory infiltrate (normal to extensive infiltrate).

[6] = Stability in human liver microsomes; type: in vitro ADME; conditions: 5 μM compound; for metabolic stability in human liver microsomes compared with 069A (in words): Fig. 4D, 10 or 30 min incubation
Protocol: Briefly, triplicate reaction mixtures contained 0.1 M potassium phosphate buffer (pH 7.4) and a final concentration of the following components: 1 – 1.6 mg/ml total microsomal protein, 5 μM test compound, 1.3 mM NADPH, 3.3 mM MgCl2, 0.4 U/ml glucose-6-phosphate dehydrogenase, and 3.3 mM glucose-6-phosphate in a total volume of 300 μl. Mixtures were incubated at 37°C for 10 or 30 minutes. […] HPLC was performed as described above with 0.1% (v/v) formic acid in water as reagent A and acetonitrile with 0.1% (v/v) formic acid in water as reagent B. Peak quantification was done based upon absorption measurements at 260 nm relative to a standard curve obtained by serial dilutions of compounds.

[7] = test system: C57Bl/6 mice infused ICV with human oligomeric Aβ1–42; experiment: AD mouse model (ICV infusion of human oligomeric Aβ1–42): hippocampal protein levels by ELISA; type: in vivo; conditions: 2.5 mg/kg oral once daily for 2 weeks from day 21 after start of Aβ infusion; day 60
Protocol: (§2) The four-week intracerebroventricular (ICV) infusion of human oligomeric Aβ1-42 or Hepes/HDL vehicle into C57Bl/6 mice was done as previously described. Mice were administered by oral gavage either […] (2.5 mg/kg) or solvent control (DMSO) in a 0.5% (w/v) carboxymethylcellulose suspension. Compound administration began at day 21 after the start of Aβ infusion, and continued on a once daily administration schedule for 14 days. Beginning at day 50 after the start of Aβ infusion, the Y-maze test of spontaneous alternation was done once daily for 10 days to evaluate hippocampal-dependent spatial learning as described previously. At day 60, mice were anesthetized, perfused, and sacrificed as previously described. Hippocampal extract supernatants were prepared by dounce and sonication, followed by centrifugation as described previously. Levels of the proinflammatory cytokines IL-1β and TNFα in hippocampal supernatants were measured by ELISA (Biosource International) per the manufacturer's instructions. S100B and synaptophysin levels were measured by ELISA as previously described.

[8] = test system: C57Bl/6 mice infused ICV with human oligomeric Aβ1–42; experiment: AD mouse model (ICV infusion of human oligomeric Aβ1–42): Y-maze spontaneous alternation; type: in vivo; conditions: 2.5 mg/kg oral once daily for 2 weeks from day 21; Y-maze days 50-60
Protocol: as §2

p38α/SAPK2α = target: T4, p38α/SAPK2α (Homo sapiens, UniProt Q16539); experiment: In vitro p38α MAPK protein kinase assay (myelin basic protein phosphorylation, 32P-ATP); type: biochemical; conditions: Fig. 3B; for p38α MAPK inhibitory activity (in words): increasing concentrations of compound; for fold less active than 069A as p38α MAPK inhibitor: relative to 069A
T4 construct: purchased Millipore (Billerica, MA)
Protocol: Concentration-dependent inhibition of protein kinase activity was done essentially as previously described. Active p38α/SAPK2α enzyme was obtained from Millipore (Billerica, MA), and bovine myelin basic protein substrate was obtained from Sigma-Aldrich (St. Louis, MO). Enzyme activity assays were done in a final volume of 50 μl and each point was tested in duplicate. Assays were done by incubation with 0.33 mg/ml (18 μM) myelin basic protein, 100 μM ATP and γ-[^32P]ATP (specific activity > 300 cpm/pmol) in assay buffer (50 mM HEPES, pH 7.5, 5 mM MgCl2, 150 mM KCl, 15 mM NaCl, 1 mM DTT). Reactions were initiated by addition of the active p38α kinase at a final concentration of 2 μg/ml, and incubated for 10 min at 30°C. […] When compounds were tested for kinase inhibitory activity, 10X stock solutions of compounds were prepared in DMSO or water, and control samples contained the same final concentration of solvent as the samples containing compound. Data are expressed as percent of the maximal enzyme activity, where enzyme activity in the absence of compound is taken as 100%. IC50 values were calculated by a nonlinear regression data analysis using Microsoft Excel. Selectivity against pathway or structurally related protein kinases was done using purified kinases and standard in vitro assays described previously, and included use of the Millipore (Billerica, MA) kinase screening service at 20 μM final concentration of 069A and 90 μM final concentration of ATP.

[9] = cited from earlier work
p38α MAPK = conditions: background statement, no reference given; cited from earlier work

T4 sequence (Q16539 whole entry): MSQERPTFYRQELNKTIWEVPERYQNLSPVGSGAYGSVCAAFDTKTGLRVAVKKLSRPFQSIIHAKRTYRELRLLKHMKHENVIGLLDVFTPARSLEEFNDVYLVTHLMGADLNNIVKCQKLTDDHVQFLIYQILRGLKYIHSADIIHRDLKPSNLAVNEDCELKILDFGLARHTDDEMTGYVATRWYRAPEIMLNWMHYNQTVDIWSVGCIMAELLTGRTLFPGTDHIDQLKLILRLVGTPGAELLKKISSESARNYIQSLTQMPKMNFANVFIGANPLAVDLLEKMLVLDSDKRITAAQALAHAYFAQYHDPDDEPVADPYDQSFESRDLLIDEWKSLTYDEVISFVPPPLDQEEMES
T1 sequence (Q15759 whole entry): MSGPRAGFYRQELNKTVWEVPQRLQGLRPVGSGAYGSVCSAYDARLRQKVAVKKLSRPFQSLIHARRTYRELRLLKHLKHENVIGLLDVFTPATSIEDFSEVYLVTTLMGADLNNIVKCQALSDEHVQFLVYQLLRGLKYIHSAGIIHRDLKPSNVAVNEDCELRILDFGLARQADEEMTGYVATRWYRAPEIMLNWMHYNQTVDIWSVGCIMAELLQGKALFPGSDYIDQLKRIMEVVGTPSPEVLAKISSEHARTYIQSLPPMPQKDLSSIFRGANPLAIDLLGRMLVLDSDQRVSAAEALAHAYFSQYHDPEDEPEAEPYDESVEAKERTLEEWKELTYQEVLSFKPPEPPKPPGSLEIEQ

c1ccc(-c2nnc(N3CCN(c4ncccn4)CC3)cc2-c2ccncc2)cc1 [MW01-2-069A-SRM]
% kinase activity (p38β) (p38β; 90 μM ATP, activity without inhibitor = 100%): 30% | inhibition of p38β (in words) (p38β; Millipore screen): partial inhibition | % kinase activity (MKK4) (MKK4): 117% | % kinase activity (MKK7β) (MKK7β): 103% | inhibition of 44 other purified protein kinases (in words) [1]: little or no inhibition | solubility at 24 h [2]: 9.54 µg/mL (≈ 24.1 µM) | logP at 2 h [3]: 3.18 | time at which compound is detected in plasma after oral administration [4]: ≤ 5 min | time at which compound appears in brain after oral administration [5]: ≤ 5 min | time of peak brain concentration after oral administration [5]: 5 to 15 min | adverse clinical effects during treatment (C57Bl/6 mice): no adverse clinical effects | histological liver injury (C57Bl/6 mice; compared with vehicle, 2.5 mg/kg): did not induce any histological indices of liver tissue injury; also recorded: no significant liver toxicity | compound remaining after incubation with human liver microsomes ([6]; 10 min incubation, 37°C): ~ 70% | Aβ-induced loss of synaptophysin in hippocampal extracts [7]: attenuates this loss of synaptophysin | Aβ-induced overproduction of IL-1β in hippocampal extracts [7]: significantly reduced | Aβ-induced overproduction of S100B in hippocampal extracts [7]: significantly reduced | Aβ-induced overproduction of TNFα in hippocampal extracts [7]: significantly reduced | Aβ-induced Y-maze behavioral deficit [8]: ameliorates the Y-maze behavioral deficit

c1ccc(-c2ccc(N3CCN(c4ncccn4)CC3)nn2)cc1 [MW01-3-183WH, 3-phenyl-6-(4-(pyrimidin-2-yl)piperazin-1-yl)pyridazine]
p38α MAPK inhibitory activity (in words) (p38α/SAPK2α): lacks inhibitory activity | fold less active than 069A as p38α MAPK inhibitor (p38α/SAPK2α): > 100 fold

c1ccc(-c2nnc(N3CCN(c4ncccn4)CC3)cc2-c2cccnc2)cc1 [MW01-4-119SRM, 3-phenyl-4-(pyridin-3-yl)-6-(4-(pyrimidin-2-yl)piperazin-1-yl)pyridazine]
p38α MAPK inhibitory activity (in words) (p38α/SAPK2α): major loss of activity | fold less active than 069A as p38α MAPK inhibitor (p38α/SAPK2α): > 100 fold

c1ccc(-c2cc(-c3ccncc3)c(N3CCN(c4ncccn4)CC3)nn2)cc1 [MW01-6-189WH]
p38α MAPK inhibitory activity (in words) (p38α/SAPK2α): does not generate MAPK inhibitory activity | fold less active than 069A as p38α MAPK inhibitor (p38α/SAPK2α): > 100 fold

Cc1cc(-c2ccccc2)nnc1NCCN1CCOCC1 [Minaprine]
metabolic stability in human liver microsomes compared with 069A (in words) [6]: it is more stable than the structurally related, clinical CNS drug Minaprine

Cc1cc(-c2ccccc2)nnc1N1CCN(c2ncccn2)CC1 [Minozac]
metabolic stability in human liver microsomes compared with 069A (in words) [6]: 069A is not as metabolically stable as Minozac | blood-brain barrier penetrance [9]: good blood-brain barrier penetrance | p38α MAPK inhibition (in words) (p38α MAPK): not an inhibitor
